4 compounds from patent EP0703904B1, “PYRIMIDINE CYANOGUANIDINES AS K-CHANNEL BLOCKERS” (priority 1993, dated 1994) can be followed below.

One test deals with RMA K^+ Channel (Oryctolagus cuniculus, UniProt P82451+Q8WMQ7). Put plainly: Inhibition of pinacidil-induced relaxation of norepinephrine-contracted isolated rabbit mesenteric artery (RMA) rings. The class given is cell-based. The note with it: inhibitor 5 µM; pinacidil 1 µM; norepinephrine 5 µM contracted rings; mean ± sem; relaxation at 15 minutes versus control; number of rings in brackets; read-out: RMA K^+ Channel Antagonism % I at 5 µM. As to the method: The results for potassium channel blocking were obtained by using isolated rabbit mesenteric artery (RMA) procedures. Norepinephrine (5 µM) was used to contract the RMA rings twice, with an hour separating the two contractions. During this hour the tissues equilibrated in physiological salt solution at a resting tension of 1 gram. Upon the plateau of the second contraction 1 µM pinacidil was added to all tissues and the resulting relaxation time course was studied for thirty minutes. […] By studying the ability of the test compounds to inhibit this pinacidil-induced relaxation, the degree of potassium antagonism could be determined. The compounds were applied to the tissues for one hour between the two contractions and the pinacidil-induced relaxation was studied in the continuing presence of the compounds. Thus, the total time of pretreatment with the test compound was 75 minutes before the addition of pinacidil. […] The compounds were tested at 5 µM. The inhibitory effect of a compound was measured as percent inhibition of pinacidil relaxation at 15 minutes in comparison with the control.

In test [1] the test system is female Harlan Sprague-Dawley rats. In words: Diuretic screen in rats: urinary Na^+ excretion. It is filed as in vivo. How it is done: The diuretic activity was determined in female Harlan Sprague-Dawley rats weighing 200 to 230 grams that were fasted 15 hours overnight, and then were deprived of both food and water for an additional hour prior to dosing. […] It approximates the area under the dose response curve. The vehicle was 20% dimethylacetamide (DMA; v/v) in a pH 7.4 phosphate buffer (0.58% N2HPO4 and 0.13% NaH2PO4·H2O). Sufficient drug was suspended in 1 to 2 ml of this vehicle to deliver doses of 1.0 to 30 mg/kg in a volume of 0.5 ml (2-4 rats/dose). At least 2 vehicle control rats, and, for most tests, 2 standard diuretic treated rats were included in each experiment. Standards used as comparators included the K^+ retaining diuretic amiloride and tie K^+ wasting diuretics furosemide, hydrochlorothiazide and metolazone.
Following their IP doses, the rats' urinary bladders were gently compressed to eliminate all pretreatment urine, and two identically treated rats were placed in a stainless steel metabolism cage equipped with a graduated test tube to collect voided urine. At 2 and 5 hours post treatment, the rats' bladders were again compressed, the volume of urine excreted by the pair of rats was recorded, and aliquots of urine were retained for analysis of Na^+ and K^+ concentrations with a NOVA-13 selective ion analyzer. Following the 5 hour urine collection, the rats were returned to their stock cages, and at least 1 week of recovery was allowed between a maximum of 3 diuretic tests.
The electrolyte concentrations detected in these urine samples were manually mulliplied by their respective volumes to determine total milliequivalent (mEq) excretion of Na^+ and K^+ per pair of rats, and the results obtained with multiple racks per drug treatment were averaged. Increases in urinary Na^+ excretion of 50% or more above the pooled control tests were regarded as reflecting activity.

The mark [2] stands for this setting: net increase above control in urinary Na^+ excretion over 5 hours divided by total of the three drug doses, administered IP.

Sequence of RMA K^+ Channel (P82451 whole entry): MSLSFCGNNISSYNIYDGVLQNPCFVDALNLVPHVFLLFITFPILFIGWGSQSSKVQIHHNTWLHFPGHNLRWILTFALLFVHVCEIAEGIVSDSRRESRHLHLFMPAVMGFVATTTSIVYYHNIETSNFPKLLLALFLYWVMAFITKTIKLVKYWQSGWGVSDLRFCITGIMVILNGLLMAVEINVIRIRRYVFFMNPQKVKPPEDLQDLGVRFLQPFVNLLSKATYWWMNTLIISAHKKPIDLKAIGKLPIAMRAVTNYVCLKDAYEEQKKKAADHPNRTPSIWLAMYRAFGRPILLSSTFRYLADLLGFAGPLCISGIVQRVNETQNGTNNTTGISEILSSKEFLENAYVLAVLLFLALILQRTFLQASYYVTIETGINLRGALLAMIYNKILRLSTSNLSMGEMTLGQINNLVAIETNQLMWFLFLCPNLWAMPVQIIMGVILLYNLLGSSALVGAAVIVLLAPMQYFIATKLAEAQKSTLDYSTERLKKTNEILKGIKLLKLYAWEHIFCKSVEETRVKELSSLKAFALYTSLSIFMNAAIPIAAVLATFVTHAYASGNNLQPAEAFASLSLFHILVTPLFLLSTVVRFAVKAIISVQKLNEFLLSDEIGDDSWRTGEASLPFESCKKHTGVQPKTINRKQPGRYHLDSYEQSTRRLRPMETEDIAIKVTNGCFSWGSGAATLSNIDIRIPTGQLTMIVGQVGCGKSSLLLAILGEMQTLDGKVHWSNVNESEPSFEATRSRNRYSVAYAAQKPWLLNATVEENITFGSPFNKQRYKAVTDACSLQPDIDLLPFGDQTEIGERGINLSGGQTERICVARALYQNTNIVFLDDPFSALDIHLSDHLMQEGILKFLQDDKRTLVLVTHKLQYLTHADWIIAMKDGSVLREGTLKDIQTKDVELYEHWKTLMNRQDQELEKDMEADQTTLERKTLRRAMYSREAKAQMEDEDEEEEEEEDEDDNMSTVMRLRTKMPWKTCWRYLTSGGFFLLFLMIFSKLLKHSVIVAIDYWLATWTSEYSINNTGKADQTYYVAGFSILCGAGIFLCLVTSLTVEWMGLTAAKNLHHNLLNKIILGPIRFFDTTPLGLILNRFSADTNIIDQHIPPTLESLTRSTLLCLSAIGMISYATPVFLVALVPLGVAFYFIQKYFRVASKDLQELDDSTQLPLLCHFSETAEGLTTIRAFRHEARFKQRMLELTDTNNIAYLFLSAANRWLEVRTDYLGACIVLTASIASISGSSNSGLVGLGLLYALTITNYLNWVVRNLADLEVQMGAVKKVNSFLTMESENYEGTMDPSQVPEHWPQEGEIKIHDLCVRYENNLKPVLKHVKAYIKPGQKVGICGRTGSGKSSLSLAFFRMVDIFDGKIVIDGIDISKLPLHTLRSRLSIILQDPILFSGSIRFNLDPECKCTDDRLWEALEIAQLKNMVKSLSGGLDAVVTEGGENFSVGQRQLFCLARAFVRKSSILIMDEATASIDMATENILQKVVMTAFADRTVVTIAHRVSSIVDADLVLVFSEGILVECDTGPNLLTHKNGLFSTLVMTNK
Sequence of RMA K^+ Channel (Q8WMQ7 1-424): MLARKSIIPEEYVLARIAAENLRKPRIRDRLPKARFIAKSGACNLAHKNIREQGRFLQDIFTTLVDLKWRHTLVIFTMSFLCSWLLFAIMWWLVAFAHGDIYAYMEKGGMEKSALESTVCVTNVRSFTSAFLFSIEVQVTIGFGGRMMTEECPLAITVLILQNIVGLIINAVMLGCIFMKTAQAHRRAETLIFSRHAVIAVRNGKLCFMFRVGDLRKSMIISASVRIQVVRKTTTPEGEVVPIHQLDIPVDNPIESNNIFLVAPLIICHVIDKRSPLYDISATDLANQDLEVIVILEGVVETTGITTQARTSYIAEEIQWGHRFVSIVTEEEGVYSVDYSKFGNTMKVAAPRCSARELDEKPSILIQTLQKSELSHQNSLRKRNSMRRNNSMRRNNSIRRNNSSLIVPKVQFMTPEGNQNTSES

Consider `N#CN=C(NCC(c1ccccc1)c1ccccc1)Nc1cccnc1` [Control], for which the inhibition at 5 µM at RMA K^+ Channel turned out to be 0%. Moreover, the “5 h Net Natriuretic Efficacy (µEq Na^+/mg/kg)” value (from here on “5 h Net Natriuretic Efficacy”) in test [1] (setting [2]) turned out to be 0.0 µEq Na^+/mg/kg.
`C[C@@H](NC(=NC#N)Nc1cncnc1)c1ccccc1` [Example 1, (R)-N"-Cyano-N-(5-pyrimidyl)-N'-(1-phenyl)ethylguanidine]: on RMA K^+ Channel, the inhibition at 5 µM came to 81.7 ± 4.4%. For the same compound, the “5 h Net Natriuretic Efficacy” value in test [1] (setting [2]) is recorded as 13.2 µEq Na^+/mg/kg.
In the case of `N#CN=C(Nc1cnc(N)nc1)NC1(c2ccccc2)CCC1` [Example 2, N-(2-Amiro-5-pyrimidyl)N"-cyano-N'-(1-phenyl)cyclobutylguanidine], on RMA K^+ Channel, the inhibition at 5 µM was 97%. Besides, in test [1] (setting [2]), the “5 h Net Natriuretic Efficacy” value turned out to be 43 µEq Na^+/mg/kg.
For the compound `CC(N/C(=N\C#N)Nc1ccncc1)C(C)(C)C` (centres unmarked) [Pinacidil], on RMA K^+ Channel, the inhibition at 5 µM worked out at 0%. Moreover, the “5 h Net Natriuretic Efficacy” value in test [1] (antidiuresis seen with 5 mg/kg oral dosage (footnote d)) is on record as -60^d µEq Na^+/mg/kg.
